Among the targets are D(1A) dopamine receptor (Homo sapiens, UniProt P21728); D(3) dopamine receptor (Homo sapiens, UniProt P35462); Histamine H3 receptor (Homo sapiens, UniProt Q9Y5N1); Mu-type opioid receptor (Homo sapiens, UniProt P35372).
For another experiment, the target named is Acetylcholinesterase (Homo sapiens, UniProt P22303). The class given is functional.
Experiment [1] deals with T1, Muscarinic acetylcholine receptor M2 (Homo sapiens, UniProt P08172).
T1 sequence (P08172 whole entry): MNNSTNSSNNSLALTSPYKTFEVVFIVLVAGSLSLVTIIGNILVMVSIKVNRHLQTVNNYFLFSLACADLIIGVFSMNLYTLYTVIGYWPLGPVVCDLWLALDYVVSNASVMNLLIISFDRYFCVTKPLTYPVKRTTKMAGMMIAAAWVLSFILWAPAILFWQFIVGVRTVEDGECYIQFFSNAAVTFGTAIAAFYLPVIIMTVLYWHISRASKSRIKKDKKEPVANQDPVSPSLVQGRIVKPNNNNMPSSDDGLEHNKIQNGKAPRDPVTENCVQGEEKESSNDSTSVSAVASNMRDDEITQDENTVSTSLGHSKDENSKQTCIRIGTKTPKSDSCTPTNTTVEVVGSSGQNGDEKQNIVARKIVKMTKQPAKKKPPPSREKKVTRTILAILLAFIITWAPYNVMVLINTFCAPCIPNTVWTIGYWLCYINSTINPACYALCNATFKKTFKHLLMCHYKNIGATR

Experiment [2] addresses T2, 5-hydroxytryptamine receptor 1A (Homo sapiens, UniProt P08908).
T2 sequence (P08908 whole entry): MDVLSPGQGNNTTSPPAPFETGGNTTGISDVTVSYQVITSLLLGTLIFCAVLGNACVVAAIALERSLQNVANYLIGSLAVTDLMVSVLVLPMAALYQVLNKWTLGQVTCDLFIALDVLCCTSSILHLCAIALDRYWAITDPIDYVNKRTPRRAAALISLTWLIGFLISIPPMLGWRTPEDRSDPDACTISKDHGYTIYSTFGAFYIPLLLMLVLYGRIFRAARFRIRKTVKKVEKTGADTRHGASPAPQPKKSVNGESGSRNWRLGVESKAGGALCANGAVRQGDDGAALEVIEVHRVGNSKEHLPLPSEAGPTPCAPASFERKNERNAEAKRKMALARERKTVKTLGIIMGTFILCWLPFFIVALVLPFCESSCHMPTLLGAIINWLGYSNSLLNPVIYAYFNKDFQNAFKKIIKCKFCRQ

The target in experiment [3] is 5-hydroxytryptamine receptor 2B (Homo sapiens, UniProt P41595). The class given is functional, cell-based.
For experiment [4], the target named is Voltage-gated inwardly rectifying potassium channel KCNH2 (Homo sapiens, UniProt Q12809). The format is functional. The note with it: read-out: AC50.
Experiment [5] has as its target T3, Amine oxidase [flavin-containing] A (Homo sapiens, UniProt P21397).
T3 sequence (P21397 whole entry): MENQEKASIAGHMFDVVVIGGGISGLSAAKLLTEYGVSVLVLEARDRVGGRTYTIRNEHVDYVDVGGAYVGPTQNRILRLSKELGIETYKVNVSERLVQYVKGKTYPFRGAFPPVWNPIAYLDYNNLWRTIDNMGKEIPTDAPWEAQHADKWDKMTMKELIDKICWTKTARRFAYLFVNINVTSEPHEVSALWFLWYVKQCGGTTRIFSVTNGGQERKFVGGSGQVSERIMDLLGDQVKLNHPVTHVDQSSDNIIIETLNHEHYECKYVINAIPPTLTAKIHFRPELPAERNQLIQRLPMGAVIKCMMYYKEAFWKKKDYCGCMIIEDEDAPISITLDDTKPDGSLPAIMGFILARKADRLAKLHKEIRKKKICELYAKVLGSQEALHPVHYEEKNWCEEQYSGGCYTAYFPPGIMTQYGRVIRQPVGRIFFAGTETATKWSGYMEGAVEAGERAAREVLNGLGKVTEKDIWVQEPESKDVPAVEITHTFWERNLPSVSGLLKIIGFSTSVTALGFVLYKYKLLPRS
The format is functional.

The target of experiment [6] is cGMP-inhibited 3',5'-cyclic phosphodiesterase 3A (Homo sapiens, UniProt Q14432). The class given is functional.
Sequence of cGMP-inhibited 3',5'-cyclic phosphodiesterase 3A (Q14432 whole entry): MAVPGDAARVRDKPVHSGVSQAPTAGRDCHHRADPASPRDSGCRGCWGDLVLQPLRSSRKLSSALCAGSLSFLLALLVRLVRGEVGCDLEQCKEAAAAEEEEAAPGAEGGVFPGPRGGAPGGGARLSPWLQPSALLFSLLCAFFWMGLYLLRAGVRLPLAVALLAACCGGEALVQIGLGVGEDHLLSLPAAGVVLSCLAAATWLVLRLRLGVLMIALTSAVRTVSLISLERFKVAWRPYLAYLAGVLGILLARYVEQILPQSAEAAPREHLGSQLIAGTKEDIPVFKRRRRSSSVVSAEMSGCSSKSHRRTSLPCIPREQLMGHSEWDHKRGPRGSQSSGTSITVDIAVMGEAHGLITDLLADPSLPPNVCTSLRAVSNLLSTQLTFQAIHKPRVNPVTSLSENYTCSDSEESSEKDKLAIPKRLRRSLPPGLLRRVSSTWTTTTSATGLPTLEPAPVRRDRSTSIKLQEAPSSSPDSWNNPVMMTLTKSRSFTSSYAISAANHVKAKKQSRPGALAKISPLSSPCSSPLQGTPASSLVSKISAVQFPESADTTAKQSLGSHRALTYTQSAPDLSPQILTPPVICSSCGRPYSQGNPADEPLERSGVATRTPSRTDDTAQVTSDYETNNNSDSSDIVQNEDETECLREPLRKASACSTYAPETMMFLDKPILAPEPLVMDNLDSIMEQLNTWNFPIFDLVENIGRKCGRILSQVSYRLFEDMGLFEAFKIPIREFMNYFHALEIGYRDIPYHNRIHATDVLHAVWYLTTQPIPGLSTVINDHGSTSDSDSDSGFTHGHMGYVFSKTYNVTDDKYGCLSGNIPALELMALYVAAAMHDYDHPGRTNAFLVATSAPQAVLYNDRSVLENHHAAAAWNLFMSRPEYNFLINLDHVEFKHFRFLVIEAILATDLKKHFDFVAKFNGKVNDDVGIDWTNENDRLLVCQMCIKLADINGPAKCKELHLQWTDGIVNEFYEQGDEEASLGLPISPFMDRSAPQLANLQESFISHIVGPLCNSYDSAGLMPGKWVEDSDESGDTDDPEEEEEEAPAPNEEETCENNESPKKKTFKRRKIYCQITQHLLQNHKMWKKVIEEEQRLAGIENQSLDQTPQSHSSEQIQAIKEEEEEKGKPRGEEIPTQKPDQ
Experiment [7] addresses 3',5'-cyclic-AMP phosphodiesterase 4A (Homo sapiens, UniProt P27815). The class given is functional.
The target in experiment [8] is T4, Prostaglandin G/H synthase 1 (Homo sapiens, UniProt P23219). The class given is functional.
T4 sequence (P23219 whole entry): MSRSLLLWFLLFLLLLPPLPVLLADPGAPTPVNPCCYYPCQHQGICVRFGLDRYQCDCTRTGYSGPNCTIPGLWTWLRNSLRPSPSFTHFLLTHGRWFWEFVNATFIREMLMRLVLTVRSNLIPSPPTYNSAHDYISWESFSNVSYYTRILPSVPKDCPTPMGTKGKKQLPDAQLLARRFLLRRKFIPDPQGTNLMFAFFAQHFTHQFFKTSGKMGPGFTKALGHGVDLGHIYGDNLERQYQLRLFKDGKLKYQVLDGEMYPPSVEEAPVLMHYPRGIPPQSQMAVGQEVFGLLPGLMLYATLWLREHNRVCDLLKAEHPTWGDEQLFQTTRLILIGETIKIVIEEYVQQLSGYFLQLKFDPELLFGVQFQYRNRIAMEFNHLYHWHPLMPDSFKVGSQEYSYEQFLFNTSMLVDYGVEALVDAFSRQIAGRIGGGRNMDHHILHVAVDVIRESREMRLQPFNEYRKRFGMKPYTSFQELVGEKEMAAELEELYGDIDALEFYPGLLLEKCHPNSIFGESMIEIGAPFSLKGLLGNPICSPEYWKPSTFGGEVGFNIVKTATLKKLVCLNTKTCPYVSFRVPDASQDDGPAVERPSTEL
The target of experiment [9] is T4, Prostaglandin G/H synthase 1. The class given is functional. The source holds these as a separate data set.
Experiment [10] concerns the target Sodium-dependent noradrenaline transporter (Homo sapiens, UniProt P23975).
In experiment [11] the target is Sodium-dependent dopamine transporter (Homo sapiens, UniProt Q01959).
Sequence of Sodium-dependent dopamine transporter (Q01959 whole entry): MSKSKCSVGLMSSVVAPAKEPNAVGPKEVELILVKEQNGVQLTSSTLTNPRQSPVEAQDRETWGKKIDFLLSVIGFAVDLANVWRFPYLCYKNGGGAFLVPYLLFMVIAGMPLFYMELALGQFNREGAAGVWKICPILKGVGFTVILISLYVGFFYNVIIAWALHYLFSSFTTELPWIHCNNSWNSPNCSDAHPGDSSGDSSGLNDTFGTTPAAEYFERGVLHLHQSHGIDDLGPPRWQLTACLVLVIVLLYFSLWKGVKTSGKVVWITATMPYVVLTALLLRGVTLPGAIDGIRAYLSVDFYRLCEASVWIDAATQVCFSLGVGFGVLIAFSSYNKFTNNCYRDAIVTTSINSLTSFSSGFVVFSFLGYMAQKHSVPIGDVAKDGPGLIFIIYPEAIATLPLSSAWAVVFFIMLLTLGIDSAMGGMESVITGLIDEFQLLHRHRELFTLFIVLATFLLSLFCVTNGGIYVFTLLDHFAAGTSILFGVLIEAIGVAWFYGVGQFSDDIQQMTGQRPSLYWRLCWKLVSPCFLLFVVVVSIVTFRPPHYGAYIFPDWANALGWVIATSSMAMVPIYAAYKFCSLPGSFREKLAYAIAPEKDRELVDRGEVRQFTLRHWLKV
The target in experiment [12] is T5, Thromboxane A2 receptor (Homo sapiens, UniProt P21731).
T5 sequence (P21731 whole entry): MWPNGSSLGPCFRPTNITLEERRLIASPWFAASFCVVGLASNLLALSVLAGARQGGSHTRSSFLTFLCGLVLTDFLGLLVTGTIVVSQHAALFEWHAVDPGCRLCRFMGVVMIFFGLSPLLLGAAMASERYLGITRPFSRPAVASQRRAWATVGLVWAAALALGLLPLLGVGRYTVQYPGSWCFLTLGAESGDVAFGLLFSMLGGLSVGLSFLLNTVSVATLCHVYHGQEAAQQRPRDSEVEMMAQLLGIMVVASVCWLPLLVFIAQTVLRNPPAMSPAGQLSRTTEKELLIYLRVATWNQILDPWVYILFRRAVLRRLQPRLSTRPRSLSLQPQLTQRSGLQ
The format is functional, cell-based.

In experiment [13] the target is T5, Thromboxane A2 receptor. The format is functional, cell-based. This is another data set of the same source.
Also: assay procedure not described here.

Sequence of D(1A) dopamine receptor (P21728 whole entry): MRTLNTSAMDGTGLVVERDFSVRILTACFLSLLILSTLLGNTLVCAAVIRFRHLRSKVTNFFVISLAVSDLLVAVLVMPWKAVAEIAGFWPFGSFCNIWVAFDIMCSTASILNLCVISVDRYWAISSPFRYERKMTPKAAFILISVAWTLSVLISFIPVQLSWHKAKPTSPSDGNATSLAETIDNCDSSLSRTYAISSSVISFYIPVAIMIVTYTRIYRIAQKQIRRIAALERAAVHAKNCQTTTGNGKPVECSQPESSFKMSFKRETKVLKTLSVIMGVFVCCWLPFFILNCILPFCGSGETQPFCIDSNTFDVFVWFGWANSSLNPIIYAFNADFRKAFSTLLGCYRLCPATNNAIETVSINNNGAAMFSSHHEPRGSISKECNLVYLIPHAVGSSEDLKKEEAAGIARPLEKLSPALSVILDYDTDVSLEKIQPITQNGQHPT
Sequence of Sodium-dependent noradrenaline transporter (P23975 whole entry): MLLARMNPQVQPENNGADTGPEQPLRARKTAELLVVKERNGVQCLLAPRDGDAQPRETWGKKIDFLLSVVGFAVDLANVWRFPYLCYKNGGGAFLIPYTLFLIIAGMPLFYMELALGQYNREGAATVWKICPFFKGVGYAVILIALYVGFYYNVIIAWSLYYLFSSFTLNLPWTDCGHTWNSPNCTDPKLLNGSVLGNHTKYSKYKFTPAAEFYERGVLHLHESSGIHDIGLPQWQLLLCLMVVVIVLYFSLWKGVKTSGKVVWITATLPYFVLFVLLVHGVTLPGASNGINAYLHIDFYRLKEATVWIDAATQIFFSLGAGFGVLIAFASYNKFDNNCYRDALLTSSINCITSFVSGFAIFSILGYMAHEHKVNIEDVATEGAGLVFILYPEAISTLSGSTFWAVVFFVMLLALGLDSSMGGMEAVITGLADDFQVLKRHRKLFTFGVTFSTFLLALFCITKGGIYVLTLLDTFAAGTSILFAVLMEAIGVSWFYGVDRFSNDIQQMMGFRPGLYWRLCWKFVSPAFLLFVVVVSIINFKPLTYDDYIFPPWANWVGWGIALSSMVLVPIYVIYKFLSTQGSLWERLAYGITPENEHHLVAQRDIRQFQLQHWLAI
Sequence of 3',5'-cyclic-AMP phosphodiesterase 4A (P27815 whole entry): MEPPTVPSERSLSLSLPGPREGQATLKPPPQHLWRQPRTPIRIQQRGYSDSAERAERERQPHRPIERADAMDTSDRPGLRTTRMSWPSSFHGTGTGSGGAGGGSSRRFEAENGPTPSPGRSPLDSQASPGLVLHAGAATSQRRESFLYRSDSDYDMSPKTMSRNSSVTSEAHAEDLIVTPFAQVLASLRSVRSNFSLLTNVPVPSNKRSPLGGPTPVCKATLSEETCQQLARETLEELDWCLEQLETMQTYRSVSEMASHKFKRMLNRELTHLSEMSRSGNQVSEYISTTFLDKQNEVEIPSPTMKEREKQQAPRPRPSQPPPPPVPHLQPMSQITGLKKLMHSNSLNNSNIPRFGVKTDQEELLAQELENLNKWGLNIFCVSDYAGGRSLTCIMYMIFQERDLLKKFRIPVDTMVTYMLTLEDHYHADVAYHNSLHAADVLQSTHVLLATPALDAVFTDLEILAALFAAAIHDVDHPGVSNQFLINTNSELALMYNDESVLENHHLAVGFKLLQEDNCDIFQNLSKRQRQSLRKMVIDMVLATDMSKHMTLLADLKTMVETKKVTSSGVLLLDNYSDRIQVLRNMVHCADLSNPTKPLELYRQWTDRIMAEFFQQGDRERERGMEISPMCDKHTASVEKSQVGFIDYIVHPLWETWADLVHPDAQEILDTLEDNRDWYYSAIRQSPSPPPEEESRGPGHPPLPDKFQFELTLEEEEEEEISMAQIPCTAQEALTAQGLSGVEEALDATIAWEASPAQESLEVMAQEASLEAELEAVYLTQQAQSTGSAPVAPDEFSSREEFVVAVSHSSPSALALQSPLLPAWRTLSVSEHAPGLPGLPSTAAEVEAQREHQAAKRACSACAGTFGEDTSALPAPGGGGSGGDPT
Sequence of Mu-type opioid receptor (P35372 whole entry): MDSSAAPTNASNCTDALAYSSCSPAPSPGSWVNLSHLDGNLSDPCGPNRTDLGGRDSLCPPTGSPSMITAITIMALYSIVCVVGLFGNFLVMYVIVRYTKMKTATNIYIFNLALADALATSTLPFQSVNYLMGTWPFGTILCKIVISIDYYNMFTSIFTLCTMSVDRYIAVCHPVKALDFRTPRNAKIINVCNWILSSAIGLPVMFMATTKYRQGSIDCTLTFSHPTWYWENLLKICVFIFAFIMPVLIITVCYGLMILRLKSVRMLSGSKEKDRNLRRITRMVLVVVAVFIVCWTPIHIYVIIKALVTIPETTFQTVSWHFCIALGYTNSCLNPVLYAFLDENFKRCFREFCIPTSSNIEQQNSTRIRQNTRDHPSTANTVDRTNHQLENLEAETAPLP

As to `COc1nccnc1NS(=O)(=O)c1ccc(N)cc1`, the AC50 (at Acetylcholinesterase; in experiment [1]; on D(1A) dopamine receptor; at D(3) dopamine receptor; at Histamine H3 receptor; in experiment [2]) was greater than 30 µM each time. For the same compound, the AC50 (in experiment [3]; in experiment [4]; in [5]; on Mu-type opioid receptor; in experiment [6]; in [7]) was greater than 30 µM each time. The AC50 (in experiment [8]; in [9]; in [10]; in [11]; at Thromboxane A2 receptor [12]; at Thromboxane A2 receptor [13]) was greater than 30 µM each time.

Turning to `NC(=O)c1nc(F)c[nH]c1=O`, the AC50 (at Acetylcholinesterase; in experiment [1]; at D(1A) dopamine receptor; at D(3) dopamine receptor; at Histamine H3 receptor; in experiment [2]) was greater than 30 µM in each case. For the same compound, the AC50 (in experiment [3]; in experiment [4]; in experiment [5]; on Mu-type opioid receptor; in [6]; in experiment [7]) was greater than 30 µM throughout. Moreover, the AC50 (in [8]; in experiment [9]; in experiment [10]; in experiment [11]; at Thromboxane A2 receptor [12]; at Thromboxane A2 receptor [13]) was greater than 30 µM throughout.

In the case of `CN(C)CCCN1C(=O)c2cc([N+](=O)[O-])ccc2Oc2ccccc21`, the AC50 – broadly, the concentration giving half of the maximal activity seen – at Acetylcholinesterase was greater than 30 µM; in experiment [1], 20.6 µM; on D(1A) dopamine receptor, 26 µM; at D(3) dopamine receptor, 15 µM; on Histamine H3 receptor, greater than 30 µM; in [2] it was 4.17 µM. Besides, the half-maximal activity concentration (AC50) (in experiment [3]; in experiment [4]; in experiment [5]; on Mu-type opioid receptor; in experiment [6]; in experiment [7]) was greater than 30 µM each time. Besides, the AC50 in [8] was 29.6 µM; in experiment [9], greater than 30 µM; in experiment [10] it was greater than 30 µM; in [11], greater than 30 µM; on Thromboxane A2 receptor [12] it was greater than 30 µM; at Thromboxane A2 receptor [13], greater than 30 µM.

Take `O=S(=O)(O)CCS` [2-MERCAPTOETHANESULFONIC ACID]: the AC50 at Acetylcholinesterase was greater than 10 µM; in experiment [1] it was greater than 30 µM; at D(1A) dopamine receptor, greater than 30 µM; on D(3) dopamine receptor, greater than 30 µM; at Histamine H3 receptor, greater than 30 µM; in experiment [2], greater than 30 µM. The AC50 was greater than 30 µM in [3]; greater than 30 µM in experiment [4]; greater than 30 µM in experiment [5]; greater than 30 µM at Mu-type opioid receptor; greater than 30 µM in experiment [6]; 9 µM in experiment [7]. Also, the AC50 in experiment [8] is 0.486 µM; in experiment [9] it was 0.78 µM; in experiment [10], greater than 30 µM; in experiment [11], greater than 30 µM; at Thromboxane A2 receptor [12], greater than 30 µM; on Thromboxane A2 receptor [13], greater than 30 µM.

For the compound `CN(C)CCN(Cc1ccc(Cl)cc1)c1ccccn1` [CHLOROPYRAMINE], the AC50 at Acetylcholinesterase was greater than 30 µM; in [1], 2.88 µM; at D(1A) dopamine receptor it was 2.23 µM; at D(3) dopamine receptor it was 1.35 µM; at Histamine H3 receptor, greater than 30 µM; in [2] it was greater than 30 µM. For the same compound, the AC50 in experiment [3] was greater than 30 µM; in [4], 0.54 µM; in [5] it was greater than 30 µM; on Mu-type opioid receptor it was 5.22 µM; in experiment [6], greater than 30 µM; in [7], greater than 30 µM. Further, the AC50 is greater than 30 µM in experiment [8]; greater than 30 µM in experiment [9]; 19.4 µM in [10]; 0.21 µM in [11]; greater than 30 µM at Thromboxane A2 receptor [12]; greater than 30 µM on Thromboxane A2 receptor [13].

Consider `O=C(O)c1cc(=O)c2ccccc2o1` [CHROMOCARB], for which the AC50 (at Acetylcholinesterase; in experiment [1]; on D(1A) dopamine receptor; on D(3) dopamine receptor; at Histamine H3 receptor; in experiment [2]) was greater than 30 µM in each case. Further, the AC50 (in [3]; in experiment [4]; in experiment [5]; at Mu-type opioid receptor; in [6]; in experiment [7]) was greater than 30 µM throughout. The AC50 in experiment [8] is 23.9 µM; in experiment [9], greater than 30 µM; in experiment [10], greater than 30 µM; in experiment [11] it was greater than 30 µM; on Thromboxane A2 receptor [12] it was greater than 30 µM; at Thromboxane A2 receptor [13] it was greater than 30 µM.

On to `C#C[C@]1(O)CC[C@H]2[C@@H]3CCC4=C(CCC(=O)C4)[C@H]3CC[C@@]21C` [NORETHYNODREL], for which the AC50 (at Acetylcholinesterase; in experiment [1]; at D(1A) dopamine receptor; at D(3) dopamine receptor; at Histamine H3 receptor; in experiment [2]) was greater than 30 µM each time. Besides, the AC50 in experiment [3] was greater than 30 µM; in experiment [5] it was greater than 30 µM; at Mu-type opioid receptor it was greater than 30 µM; in experiment [6], 23.4 µM; in experiment [7], greater than 30 µM; in [8], 11.8 µM. Besides, the AC50 in experiment [9] is greater than 30 µM; in [10], greater than 30 µM; in experiment [11] it was greater than 30 µM; at Thromboxane A2 receptor [12] it was greater than 30 µM; at Thromboxane A2 receptor [13], 24.2 µM.

Consider `CN(C)C(=O)c1nc(CNC(=O)CN)n(-c2ccc(Cl)cc2C(=O)c2ccccc2Cl)n1` [RILMAZAFONE], for which the AC50 (on Acetylcholinesterase; in experiment [1]; on D(1A) dopamine receptor; at D(3) dopamine receptor; at Histamine H3 receptor; in experiment [2]) was greater than 30 µM each time. The AC50 is greater than 30 µM in experiment [3]; greater than 30 µM in experiment [5]; greater than 30 µM at Mu-type opioid receptor; greater than 30 µM in experiment [6]; greater than 30 µM in experiment [7]; 13.5 µM in experiment [8]. Besides, the AC50 (in [9]; in [10]; in experiment [11]; at Thromboxane A2 receptor [12]; at Thromboxane A2 receptor [13]) was greater than 30 µM in each case.

The values above are taken from ChEMBL document CHEMBL5291721, “A preclinical secondary pharmacology resource illuminates target-adverse drug reaction associations of marketed drugs” (Nat Commun, 2023).
